Literature values as cited in PMC10017685 (Nature Communications, 2023).
Where two headings read alike, the source gives them in different places.

Test system: human erythrocytes
Set-up: method as in DBAASP
Conditions: cited from earlier work
[1] = toxicity class label 1 or 0, meaning of the labels not given, DBAASP HC50 data, human erythrocytes, ref DBAASP

Sequence	Class (dedicated toxicity dataset used for toxicity classifier evaluation)	Class (dedicated toxicity dataset used for toxicity classifier evaluation) [1]
GIMSSLMKKLAKIIKK [DBAASP_8903]	0	
FFPIIAGMAAKVICAITKKC [DBAASP_4211]		1
FLSALWGVAKSLF [DBAASP_18190]		0
IKKIVSKIKKVLK [DBAASP_7246]		0
KKKKKKKKKGGGLLALLALLA [DBAASP_13727]		1
KLLKRIKKLL [DBAASP_3152]		0
KLLKRIKTLL [DBAASP_3149]		0
WRWLRRIW [DBAASP_10631]		0
FLSAITSILGKFF [DBAASP_13350]		0
GLLKRIKTL [DBAASP_13873]		1
GLNALKKVFQGFHEAIKLINNHVQ [DBAASP_6935]		0
GFKDLLKGAKKALVKTVLF [DBAASP_4907]		0
DIFGAIWPLALGALKNLIK [DBAASP_9407]		1
YLRLIRYMAKMI [DBAASP_17183]		0
GLLDLLKLLLKAAG [DBAASP_12756]		0
PFKIDIHLGGY [DBAASP_7635]		0
GKLGPLLKIAAKVGSKLL [DBAASP_11238]		0
FLSLIPKAISAVSALANHF [DBAASP_12626]		0
ILGKLLSTAAGLLSKL [DBAASP_4364]		0
FFPGIIKVAGAILPTAICAITKRC [DBAASP_10252]		0
KFKKLFKKLSPVFKRIVQRIKDFLR [DBAASP_13190]		0
FLSLIPKIISAISALIKHF [DBAASP_12630]		1
FLKGIVGMLGKLL [DBAASP_9111]		0
FLSLIPKIATGIAALAKHL [DBAASP_10833]		1
GLNALKKVFQGIHEAIKLFNNHVQ [DBAASP_6937]		0
GLNALKKVFQGIHKAIKLINNHVQ [DBAASP_6925]		0

Sequence	Class (dedicated toxicity dataset used for toxicity classifier evaluation)	Class (dedicated toxicity dataset used for toxicity classifier evaluation) [1]
FLAGLIGGLAKML [DBAASP_1978]		0
IAKIAGKIAKIAGKIAKIAGKIAK [DBAASP_14999]	1	
GWKSVFRKAKKVGKTVGGLALDHYL [DBAASP_995]		0
VKRWKKWKRKWKKWV [DBAASP_16448]		0
LWGALLGLGSTLLSKL [DBAASP_18167]		1
IAGKIAKIAGKIAKIAGKIA [DBAASP_14993]	1	
GLNALKKVFQGIHEAFKLINNHVQ [DBAASP_6936]		0
FLPMLAGLAANFLPKIVCKITKKC [DBAASP_1892]		1
GWLPTFGKILRKAMQLGPKLIQPI [DBAASP_5715]		0
VKKFAWWWPFLKK [DBAASP_11304]		0
GILGKLWEGVKSIF [DBAASP_8864]		0
GLNALKKVFQGIHEAIKLINNHVK [DBAASP_6927]		0
FLRFIGSVIHGIGHLVHHIGVAL [DBAASP_4193]		0
FLPILAGLAAKLVPKVFCSITKKC [DBAASP_4220]		1
GIIKKIIKKIIKKI [DBAASP_4594]		0
IKKWWSKIKKLLK [DBAASP_7156]		0
GLLKRIKKLLKKIKKLL [DBAASP_8595]		1
FPVTWPTKWWEG [DBAASP_9720]		0
VRRFPYWWPFLRR [DBAASP_14259]		0
SFLTTVKKLVTNLAAL [DBAASP_13626]		0
GIKDLLKGAAKALVKTVLF [DBAASP_11234]		0
RWGKWFKKATHVGKHVGKAALTAYL [DBAASP_997]		0
WWWLRRRW [DBAASP_10634]		0
FPVTFRFFKFFKG [DBAASP_9715]		0
VQLRIRVAVIRA [DBAASP_7109]		0
FLPLILPSIVTALSSFLKQG [DBAASP_8197]		0

Sequence	Class (dedicated toxicity dataset used for toxicity classifier evaluation)	Class (dedicated toxicity dataset used for toxicity classifier evaluation) [1]
FLSLIPAAISAVSALANHF [DBAASP_10851]		0
ALWKTMLKKLGTM [DBAASP_10093]		0
GIFDVLKNLAKGVITSLAS [DBAASP_16392]		0
GLFDVIKKLLKKIGGL [DBAASP_8593]		1
FLSLIPKAISAISALINHF [DBAASP_12628]		1
GVLKRIKTLV [DBAASP_8624]		0
GLLKRIKSLL [DBAASP_8600]		0
GLLKKIKTLL [DBAASP_3141]		0
FLPAIVGAAAKFLPKIFCAISKKC [DBAASP_4213]		1
GLMKRIKTML [DBAASP_8625]		0
GIWKTIKSMGKVFAGAILQNL [DBAASP_704]		0
GWLDVAKKIGKAAFNVAKNFI [DBAASP_7670]		1
WIRRIKKWIRRVHK [DBAASP_10626]		0
FLPILASLAAKLGPKLFCLVTKKC [DBAASP_3537]		1
FLQGIWDTVGKWL [DBAASP_18166]		0
GLLKVIKVLL [DBAASP_3150]		1
GRFKRFRKKFKKLFKKLS [DBAASP_628]		0
HFKGTLVNLAKKIL [DBAASP_5016]		0
KWCVYAYVKVKGVLVKYKKCW [DBAASP_2027]		0
KRIVQRIKKWLR [DBAASP_6827]		0
FLKWALKWAAK [DBAASP_16467]		0
FFHHIFRGIVHVGKTVHRLVTG [DBAASP_9008]		0
RFRRLRKKTRKRLKKI [DBAASP_7143]		0
GLLSRIKTLL [DBAASP_8598]		0
GILSSLWKKLKKIIAK [DBAASP_8913]	0	
HFLGTLVNLAKKIK [DBAASP_5026]		0

Sequence	Class (dedicated toxicity dataset used for toxicity classifier evaluation)	Class (dedicated toxicity dataset used for toxicity classifier evaluation) [1]
GLLGPLLKIAKKVGSNLL [DBAASP_4923]		0
GMMKRIKTMM [DBAASP_8621]		0
GFKDLLKKAAKALVKTVLF [DBAASP_4906]		1
GLLGPLLKIAAKVGSNLL [DBAASP_3157]		0
FLPKWALKWAAK [DBAASP_16468]		0
RQYMRQIEQALRYGYRISRR [DBAASP_14411]		0
KFLGTLVNLAKKIL [DBAASP_5014]		0
FLPAVLKVAAHILPTAICAISRRC [DBAASP_5694]		0
FWGKLWEGVKNAI [DBAASP_3480]		0
IKKIVSKIKKLLK [DBAASP_7245]		0
FLQGIIDTVGKWL [DBAASP_18165]		0
VRRFAWWWPFLRR [DBAASP_5142]		0
GLNALKKFFQGIHEAIKLINNHVQ [DBAASP_6934]		0
IFGAIWPLALGALKNLIK [DBAASP_9405]		1
GLLKRIKNLL [DBAASP_3146]		0
FFPLIFGALSSILPKIL [DBAASP_18209]		1
GILSSLLKKWKKIIAK [DBAASP_8916]	0	
KKVLKAAA [DBAASP_7362]		0
FFGKVLKLIRKIF [DBAASP_2255]		1
GVVKRIKTVV [DBAASP_8620]		0
KLALKLALKALKAALKLA [DBAASP_1030]		1
GLLDLLKGAGKGLLTHLASQI [DBAASP_16389]		0
AAKKGCWTVSIPPKPCF [DBAASP_12530]		0
